Laboratory results as given in US10703764B2, “Benzopiperazine compositions as BET bromodomain inhibitors” (FORMA Therapeutics, Inc., priority 2013, dated 2020).

Columns and labels:
MV4-11 cells = assay: Oncology cell growth assay (3-day proliferation, CellTiter-Glo); type: cell-based; details: Homo sapiens, MV4-11, 72 h, AML cell line MV4-11, 72 hours, compounds grouped by IC50 range, read-out: MV4-11 IC50 (inhibition of proliferation, gIC50)
Experimental: The impact of Example compounds on cancer cell proliferation was determined using the acute myelocytic leukemia (AML) cell line MV4-11 (ATCC) in a 3-day proliferation assay. MV4-11 cells were maintained in RPMI 1640 media supplemented with 10% FBS at 37° C. and an atmosphere of 5% CO2. For compound testing, compound dilutions series were prepared in DMSO via a 3-fold serial dilution from 2 mM to 0.001 mM in 384-well white flat bottom plates. The final compound concentrations in the wells were 10, 3.3, 1.1, 0.37, 0.12, 0.041, 0.013 and 0.0045 μM. MV4-11 cells were plated at a density of 3000 cells/well in final volume of 50 μl culture media and incubated for 72 hours. […] Luminescent signal from the CellTiter-Glo assay was read on an EnVision multilabel plate reader (PerkinElmer). Values for the concentration that inhibited cell growth by 50% (gIC50) between the DMSO control and background control (no cells) were determined using IDBS Activity Base software with a four parameter logistic curve fit by the equation y=A+((B−A)/(1+((C/x)^D))), wherein A denotes the bottom plateau of the curve, B denotes the top plateau of the curve, C denotes the x value at the middle of the curve, D denotes the slope factor, x denotes the original known x values, and y denotes the original known y values. Data was fitted using the Levenburg Marquardt algorithm.

BRD4 BD1 = biological target: T1, BRD4 BD1 (Homo sapiens, UniProt O60885); assay: AlphaScreen binding assay, BRD4 Bromodomain 1
T1 construct: made in house
Method in brief: (§1)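 An AlphaScreen competition format was used with His-BRD4 BD1 or BD2 and biotin-H4 K5/8/12/16-acetyl peptide, each at matched final levels of 50 nM (BD1) or 100 nM (BD2). Incubation in HEPES/NaCl buffer with 0.1% BSA and 0.01% Triton X-100 ran ≥1 h before IC50 determination.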

BRD4 BD2 = biological target: T2, BRD4 BD2 (Homo sapiens, UniProt O60885); assay: AlphaScreen binding assay, BRD4 Bromodomain 2
T2 construct: made in house
Method in brief: as §1

Structure (SMILES) | IC50 (MV4-11 cells) [nM] | IC50 (BRD4 BD1) [nM] | IC50 (BRD4 BD2) [nM]
CC(=O)N1c2ccc(-c3cnn(C4CN[C@H]4C)c3)cc2N(C(=O)OC2CC(F)(F)C2)C[C@@H]1C (mixture of isomers) [Example I-168, 3,3-difluorocyclobutyl (3S)-4-acetyl-3-methyl-7-{1-[(2S)-2-methylazetidin-3-yl]-1H-pyrazol-4-yl}-1,2,3,4-tetrahydroquinoxaline-1-carboxylate] | > 500 | 100 to 1000 | 
CC(=O)N1c2ccc(-c3cnn(C4CN[C@H]4C)c3)cc2N(C(=O)OC(C)C)C[C@@H]1C (stereo partly drawn) [Example I-159, propan-2-yl (3S)-4-acetyl-3-methyl-7-{1-[(2S)-2-methylazetidin-3-yl]-1H-pyrazol-4-yl}-1,2,3,4-tetrahydroquinoxaline-1-carboxylate] | < 100 | 100 to 1000 | 
CC(=O)N1c2ccc(-c3cnn(C4CN[C@H]4C)c3)cc2N(C(=O)C2CC2)C[C@@H]1C (stereo partly drawn) [Example I-160, 1-[(2S)-4-cyclopropanecarbonyl-2-methyl-6-{1-[(2S)-2-methylazetidin-3-yl]-1H-pyrazol-4-yl}-1,2,3,4-tetrahydroquinoxalin-1-yl]ethan-1-one] | < 100 | 100 to 1000 | 
CC(=O)N1c2ccc(-c3cnn(C4CCNC(=O)C4)c3)cc2N(C(=O)OC2CC(F)(F)C2)C[C@@H]1C (stereo partly drawn) [Example I-164, 3,3-difluorocyclobutyl (3S)-4-acetyl-3-methyl-7-[1-(2-oxopiperidin-4-yl)-1H-pyrazol-4-yl]-1,2,3,4-tetrahydroquinoxaline-1-carboxylate] | > 500 | 100 to 1000 | 
CC(=O)N1c2ccc(-c3cnn(C4CCNC(=O)C4)c3)cc2N(C(=O)OC2CCC(F)(F)CC2)C[C@@H]1C (stereo partly drawn) [Example I-165, 4,4-difluorocyclohexyl (3S)-4-acetyl-3-methyl-7-[1-(2-oxopiperidin-4-yl)-1H-pyrazol-4-yl]-1,2,3,4-tetrahydroquinoxaline-1-carboxylate] | 100 to 500 | 100 to 1000 | 
CC(=O)N1c2ccc(-c3cnn(C4CCNC(=O)C4)c3)cc2N(C(=O)OC(C)C)C[C@@H]1C (stereo partly drawn) [Example I-166, propan-2-yl (3S)-4-acetyl-3-methyl-7-[1-(2-oxopiperidin-4-yl)-1H-pyrazol-4-yl]-1,2,3,4-tetrahydroquinoxaline-1-carboxylate] | 100 to 500 | 100 to 1000 | 
CC(=O)N1c2ccc(-c3cnn(C4CN[C@@H]4C)c3)cc2N(C(=O)OC2CCC2)C[C@@H]1C (stereo partly drawn) [Example I-170, cyclobutyl (3S)-4-acetyl-3-methyl-7-{1-[(2R)-2-methylazetidin-3-yl]-1H-pyrazol-4-yl}-1,2,3,4-tetrahydroquinoxaline-1-carboxylate] | 100 to 500 | 100 to 1000 | 
COC(=O)N1c2ccc(-c3cnn(CCS(C)(=O)=O)c3)cc2N(C(=O)Oc2ccccn2)C[C@@H]1C [Example I-1319] |  | 1000 to 10000 | 50 to 500
CC(=O)N1c2ccc(-c3cnn(CC(C)(C)O)c3)cc2N(C(=O)Oc2ccccn2)C[C@@H]1C [Example I-1320] |  | 1000 to 10000 | 50 to 500
COC(=O)N1c2ccc(-c3cnn(CC(C)(C)O)c3)cc2N(C(=O)Oc2ccccn2)C[C@@H]1C [Example I-1321] |  | 1000 to 10000 | 50 to 500
COC(=O)N1c2ccc(-c3ccc(N4CCCS4(=O)=O)cc3)cc2N(C(=O)Oc2ccccn2)C[C@@H]1C [Example I-1325] |  | 1000 to 10000 | 50 to 500
COC(=O)N1c2ccc(-c3cnn(CCC#N)c3)cc2N(C(=O)Oc2ccccn2)C[C@@H]1C [Example I-1327] |  | 1000 to 10000 | 50 to 500
COC(=O)N1c2ccc(-c3ccc4c(c3)CCN4S(C)(=O)=O)cc2N(C(=O)Oc2ccccn2)C[C@@H]1C [Example I-1329] |  | 1000 to 10000 | 50 to 500
COC(=O)N1c2ccc(-c3ccc(N(C)S(C)(=O)=O)cc3)cc2N(C(=O)Oc2ccccn2)C[C@@H]1C [Example I-1331] |  | 1000 to 10000 | 50 to 500
COC(=O)N1c2ccc(-c3cnn(C4CCNCC4)c3)cc2N(C(=O)Oc2ccccn2)C[C@@H]1C [Example I-1333] |  | 1000 to 10000 | 50 to 500
COC(=O)N1c2ccc(-c3cnn(CCO)c3)cc2N(C(=O)Oc2ccccn2)C[C@@H]1C [Example I-1335] |  | 1000 to 10000 | 50 to 500

Continued, values first:

IC50 (MV4-11 cells) [nM] | IC50 (BRD4 BD1) [nM] | IC50 (BRD4 BD2) [nM] | Structure (SMILES)
100 to 500 | 100 to 1000 |  | CC(=O)N1c2ccc(-c3cnn(C4CCNC(=O)C4)c3)cc2N(C(=O)OC2CCC2)C[C@@H]1C (single isomer, unassigned) [Example I-176]
100 to 500 | 100 to 1000 |  | CC(=O)N1c2ccc(-c3cnn(C4CS(=O)(=O)C4)c3)cc2N(C(=O)OC2CC(F)(F)C2)C[C@@H]1C [Example I-1, 3,3-difluorocyclobutyl (3S)-4-acetyl-7-[1-(1,1-dioxo-1λ^6-thietan-3-yl)-1H-pyrazol-4-yl]-3-methyl-1,2,3,4-tetrahydroquinoxaline-1-carboxylate]
< 100 | < 100 |  | CC(=O)N1c2ccc(-c3cnn(C4CCS(=O)(=O)CC4)c3)cc2N(C(=O)OC2CCC2)C[C@@H]1C [Example I-154, cyclobutyl (3S)-4-acetyl-7-[1-(1,1-dioxo-1λ^6-thian-4-yl)-1H-pyrazol-4-yl]-3-methyl-1,2,3,4-tetrahydroquinoxaline-1-carboxylate]
> 500 | 100 to 1000 |  | CC(=O)N1c2ccc(-c3cnn(C4CCS(=O)(=O)CC4)c3)cc2N(C(=O)OC(C)C)C[C@@H]1C [Example I-156, propan-2-yl (3S)-4-acetyl-7-[1-(1,1-dioxo-1λ^6-thian-4-yl)-1H-pyrazol-4-yl]-3-methyl-1,2,3,4-tetrahydroquinoxaline-1-carboxylate]
100 to 500 | 100 to 1000 |  | CC(=O)N1c2ccc(-c3cnn(C4CCNC(=O)C4)c3)cc2N(C(=O)OC2CCOCC2)C[C@@H]1C (stereo partly drawn) [Example I-163, oxan-4-yl (3S)-4-acetyl-3-methyl-7-[1-(2-oxopiperidin-4-yl)-1H-pyrazol-4-yl]-1,2,3,4-tetrahydroquinoxaline-1-carboxylate]
100 to 500 | 100 to 1000 |  | CC(=O)N1c2ccc(-c3cnn(C4CCNC(=O)C4)c3)cc2N(C(=O)C2CC2)C[C@@H]1C (stereo partly drawn) [Example I-167, 4-{4-[(2S)-1-acetyl-4-cyclopropanecarbonyl-2-methyl-1,2,3,4-tetrahydroquinoxalin-6-yl]-1H-pyrazol-1-yl}piperidin-2-one]
> 500 | 100 to 1000 |  | CC(=O)N1c2ccc(-c3cnn(C4CCS(=O)(=O)CC4)c3)cc2N(C(=O)OCC2CC2)C[C@@H]1C [Example I-169, cyclopropylmethyl (3S)-4-acetyl-7-[1-(1,1-dioxo-1λ^6-thian-4-yl)-1H-pyrazol-4-yl]-3-methyl-1,2,3,4-tetrahydroquinoxaline-1-carboxylate]
> 500 | 100 to 1000 |  | CC(=O)N1c2ccc(-c3cnn([C@@H]4CCCS(=O)(=O)C4)c3)cc2N(C(=O)OCC2CC2)C[C@@H]1C [Example I-171, cyclopropylmethyl (3S)-4-acetyl-7-{1-[(3R)-1,1-dioxo-1λ^6-thian-3-yl]-1H-pyrazol-4-yl}-3-methyl-1,2,3,4-tetrahydroquinoxaline-1-carboxylate]
> 500 | 100 to 1000 |  | CC(=O)N1c2ccc(-c3cnn([C@H]4CCCS(=O)(=O)C4)c3)cc2N(C(=O)OCC2CC2)C[C@@H]1C [Example I-172, cyclopropylmethyl (3S)-4-acetyl-7-{1-[(3S)-1,1-dioxo-1λ^6-thian-3-yl]-1H-pyrazol-4-yl}-3-methyl-1,2,3,4-tetrahydroquinoxaline-1-carboxylate]
< 100 | 100 to 1000 |  | CC(=O)N1c2ccc(-c3cnn([C@@H]4CCCS(=O)(=O)C4)c3)cc2N(C(=O)OC2CCC2)C[C@@H]1C [Example I-173, cyclobutyl (3S)-4-acetyl-7-{1-[(3R)-1,1-dioxo-1λ^6-thian-3-yl]-1H-pyrazol-4-yl}-3-methyl-1,2,3,4-tetrahydroquinoxaline-1-carboxylate]
< 100 | < 100 |  | CC(=O)N1c2ccc(-c3cnn([C@H]4CCCS(=O)(=O)C4)c3)cc2N(C(=O)OC2CCC2)C[C@@H]1C [Example I-174, cyclobutyl (3S)-4-acetyl-7-{1-[(3S)-1,1-dioxo-1λ^6-thian-3-yl]-1H-pyrazol-4-yl}-3-methyl-1,2,3,4-tetrahydroquinoxaline-1-carboxylate]
< 100 | < 100 |  | CC(=O)N1c2ccc(-c3cnn(C4CCNC(=O)C4)c3)cc2N(C(=O)OC2CCC2)C[C@@H]1C (stereo partly drawn) [Example I-175, cyclobutyl (3S)-4-acetyl-3-methyl-7-[1-(2-oxopiperidin-4-yl)-1H-pyrazol-4-yl]-1,2,3,4-tetrahydroquinoxaline-1-carboxylate]
